Test [1] deals with Escherichia coli D21f2tolC. The experiment in a line: microbe, parasite or virus in culture. As to conditions: 16 h.
In test [2] the test system is Staphylococcus aureus ATCC 12600. Put plainly: Inhibition of bacterial growth in culture, spiral gradient endpoint assay (MIC). As to conditions: Staphylococcus aureus, ATCC12600, 16 h.
The subject of test [3] is Enterococcus faecalis ATCC 19433. The description is as above. It is filed as cell-based. Particulars: Enterococcus faecalis, ATCC 19433 /, 16 h. An excerpt: J. Microbiol. Meths. […] Int. J. Exp. Clin. Chemother. […] Adv.
Setting [4] is: read-out: MIC E. coli D21f2tolC, Mueller-Hinton II agar, 16 h at 37° C.
[5] abbreviates: read-out: MIC S. aureus 12600, Mueller-Hinton II agar, 16 h at 37° C.
Where [6] appears, read: read-out: MIC E. faecalis, Mueller-Hinton II agar, 16 h at 37° C.

In brackets after ≈: the same amount, converted by molar mass. Read-outs that look alike come from different tables or passages of the source.

Regarding `O=C(C=Cc1ccc(Oc2ccc(Cl)cc2)cc1)c1c(O)cc(O)cc1O` (mixture of isomers) [Example 5, (E)-3-(4-(4-chlorophenoxy)phenyl)-1-(2,4,6-trihydroxyphenyl)prop-2-en-1-one], the MIC in test [1] (setting [4]) is 1.6 µg/mL; in test [2] (setting [5]), 2.6 µg/mL; in test [3] (setting [6]), 6 µg/mL.

Take `CC(Cc1ccc(Cl)cc1)C(=O)c1c(O)cc(O)cc1O` (racemic) [Example 30, 3-(4-chlorophenyl)-2-methyl-1-(2,4,6-trihydroxyphenyl)propan-1-one]: the MIC stood at 6.5 µg/mL (≈ 21.2 µM) in test [1] (setting [4]), 14 µg/mL (≈ 45.6 µM) in test [2] (setting [5]) and 17 µg/mL (≈ 55.4 µM) in test [3] (setting [6]).

Take `Cc1ccc(CCC(=O)c2c(O)cc(O)cc2O)s1` [Example 1, 3-(5-methylthiophen-2-yl)-1-(2,4,6-trihydroxyphenyl)propan-1-one]: the MIC in test [1] (setting [4]) is 24 µg/mL (≈ 86.2 µM); in test [2] (setting [5]), 32 µg/mL (≈ 115 µM); in test [3] (setting [6]), more than 40 µg/mL.

`O=C(c1c(O)cc(O)cc1O)C1CC1c1ccc(Cl)cc1` (centres unmarked) [Example 2, (2-(4-chlorophenyl)cyclopropyl)(2,4,6-trihydroxyphenyl)methanone]: the MIC came out at 9.3 µg/mL (≈ 30.5 µM) in test [1] (setting [4]), 12 µg/mL (≈ 39.4 µM) in test [2] (setting [5]) and 12 µg/mL (≈ 39.4 µM) in test [3] (setting [6]).

Regarding `O=C(CCc1ccc(Oc2cccc(Cl)c2)cc1)c1c(O)cc(O)cc1O` [Example 3, 3-(4-(3-chlorophenoxy)phenyl)-1-(2,4,6-trihydroxyphenyl)propan-1-one], the MIC worked out at 1.9 µg/mL (≈ 4.94 µM) in test [1] (setting [4]), 1.9 µg/mL (≈ 4.94 µM) in test [2] (setting [5]) and 3.7 µg/mL (≈ 9.62 µM) in test [3] (setting [6]).

`O=C(CCc1ccc(Oc2ccc(Cl)cc2)cc1)c1c(O)cc(O)cc1O` [Example 4, 3-(4-(4-chlorophenoxy)phenyl)-1-(2,4,6-trihydroxyphenyl)propan-1-one]: the MIC in test [1] (read-out: MIC E. coli D21f2tolC) worked out at 1.5 µg/mL (≈ 3.9 µM); in test [2] (read-out: MIC S. aureus 12600) it was 2.4 µg/mL (≈ 6.24 µM); in test [3] (read-out: MIC E. faecalis) it was 3.2 µg/mL (≈ 8.32 µM).

In the case of `O=C(/C=C/c1ccc(Oc2ccccn2)cc1)c1c(O)cc(O)cc1O` [Example 6, (E)-3-(4-(pyridin-2-yloxy)phenyl)-1-(2,4,6-trihydroxyphenyl)prop-2-en-1-one], the MIC in test [1] (setting [4]), in test [2] (setting [5]) and in test [3] (setting [6]) was more than 40 µg/mL in each case.

As for `O=C(/C=C/c1ccc(OCc2ccccc2)cc1)c1c(O)cc(O)cc1O` [Example 7], the MIC in test [1] (setting [4]) is 16 µg/mL (≈ 44.2 µM); in test [2] (setting [5]) it was more than 40 µg/mL; in test [3] (setting [6]) it was more than 40 µg/mL.

For `O=C(/C=C/c1ccc(Oc2ccccc2)cc1)c1c(O)cc(O)cc1O` [Example 8, (E)-3-(4-phenoxyphenyl)-1-(2,4,6-trihydroxyphenyl)prop-2-en-1-one], the values for the MIC in test [1] (setting [4]), in test [2] (setting [5]) and in test [3] (setting [6]) were 3.8 µg/mL (≈ 10.9 µM), 6.5 µg/mL (≈ 18.7 µM) and 31 µg/mL (≈ 89 µM), respectively.

As for `O=C(/C=C/c1ccc(C(F)(F)F)cc1C(F)(F)F)c1c(O)cc(O)cc1O` [Example 9, (E)-3-(2,4-bis(trifluoromethyl)phenyl)-1-(2,4,6-trihydroxyphenyl)prop-2-en-1-one], the results for the MIC in test [1] (setting [4]), in test [2] (setting [5]) and in test [3] (setting [6]) were 8 µg/mL (≈ 20.4 µM), 13 µg/mL (≈ 33.1 µM) and 16 µg/mL (≈ 40.8 µM), respectively.

With `O=C(CCc1ccc(Oc2ccc(F)cc2)cc1)c1c(O)cc(O)cc1O` [Example 10, 3-(4-(4-fluorophenoxy)phenyl)-1-(2,4,6-trihydroxyphenyl)propan-1-one], the MIC came out at 1.5 µg/mL (≈ 4.07 µM) in test [1] (setting [4]), 3.1 µg/mL (≈ 8.42 µM) in test [2] (setting [5]) and 5.1 µg/mL (≈ 13.8 µM) in test [3] (setting [6]).

On to `O=C(/C=C/c1ccc(Oc2ccc(F)cc2)cc1)c1c(O)cc(O)cc1O` [Example 11, (E)-3-(4-(4-fluorophenoxy)phenyl)-1-(2,4,6-trihydroxyphenyl)prop-2-en-1-one], for which the MIC in test [1] (setting [4]) is 5.9 µg/mL (≈ 16.1 µM); in test [2] (setting [5]), 17 µg/mL (≈ 46.4 µM); in test [3] (setting [6]), more than 40 µg/mL.

Regarding `O=C(c1c(O)cc(O)cc1O)C1CC1c1ccc(Oc2ccc(F)cc2)cc1` (centres unmarked) [Example 12, (2-(4-(4-fluorophenoxy)phenyl)cyclopropyl)(2,4,6-trihydroxyphenyl) methanone], the MIC in test [1] (setting [4]) turned out to be 1.5 µg/mL (≈ 3.94 µM); in test [2] (setting [5]), 3.1 µg/mL (≈ 8.15 µM); in test [3] (setting [6]), 4 µg/mL (≈ 10.5 µM).

`O=C(c1c(O)cc(O)cc1O)C1CC1c1ccc(Oc2ccc(Cl)cc2)cc1` (centres unmarked) [Example 13, (2-(4-(4-chlorophenoxy)phenyl)cyclopropyl)(2,4,6-trihydroxyphenyl)methanone]: the MIC was 2.1 µg/mL (≈ 5.29 µM) in test [1] (setting [4]), 4.3 µg/mL (≈ 10.8 µM) in test [2] (setting [5]) and 4.8 µg/mL (≈ 12.1 µM) in test [3] (setting [6]).

For `O=C(/C=C/c1ccc(C(F)(F)F)cc1)c1c(O)cc(O)cc1O` [Example 14, (E)-3-(4-(trifluoromethyl)phenyl)-1-(2,4,6-trihydroxyphenyl)prop-2-en-1-one], the MIC in test [1] (setting [4]) stood at 20 µg/mL (≈ 61.7 µM); in test [2] (setting [5]), 32 µg/mL (≈ 98.7 µM); in test [3] (setting [6]), 32 µg/mL (≈ 98.7 µM).

For the compound `O=C(/C=C/c1ccc(Oc2ccccc2)cc1C(F)(F)F)c1c(O)cc(O)cc1O` [Example 15, (E)-3-(4-phenoxy-2-(trifluoromethyl)phenyl)-1-(2,4,6-trihydroxyphenyl)prop-2-en-1-one], the MIC in test [1] (setting [4]) worked out at 1.8 µg/mL (≈ 4.32 µM); in test [2] (setting [5]), 3.2 µg/mL (≈ 7.69 µM); in test [3] (setting [6]) it was 3.6 µg/mL (≈ 8.65 µM).

For `O=C(CCc1ccc(Oc2ccccc2)cc1C(F)(F)F)c1c(O)cc(O)cc1O` [Example 16, 3-(4-phenoxy-2-(trifluoromethyl)phenyl)-1-(2,4,6-trihydroxyphenyl)propan-1-one], the MIC in test [1] (setting [4]) was 1.3 µg/mL (≈ 3.11 µM); in test [2] (setting [5]) it was 1.1 µg/mL (≈ 2.63 µM); in test [3] (setting [6]), 1.8 µg/mL (≈ 4.3 µM).

On to `O=C(/C=C/c1ccc(Oc2ccc(Cl)cc2)cc1C(F)(F)F)c1c(O)cc(O)cc1O` [Example 17, (E)-3-(4-(4-chlorophenoxy)-2-(trifluoromethyl)phenyl)-1-(2,4,6-trihydroxyphenyl)prop-2-en-1-one], for which the MIC in test [1] (setting [4]) turned out to be 2.5 µg/mL (≈ 5.55 µM); in test [2] (setting [5]) it was 1.8 µg/mL (≈ 3.99 µM); in test [3] (setting [6]), 1.9 µg/mL (≈ 4.21 µM).

With `Cc1cc(Oc2ccc(Cl)cc2)ccc1/C=C/C(=O)c1c(O)cc(O)cc1O` [Example 18, (E)-3-(4-(4-chlorophenoxy)-2-methylphenyl)-1-(2,4,6-trihydroxyphenyl)prop-2-en-1-one], the MIC in test [1] (setting [4]) stood at 1.1 µg/mL (≈ 2.77 µM); in test [2] (setting [5]) it was 1.3 µg/mL (≈ 3.28 µM); in test [3] (setting [6]), 2.4 µg/mL (≈ 6.05 µM).

With `Cc1ccc(C2CC2C(=O)c2c(O)cc(O)cc2O)cc1` (centres unmarked) [Example 19, (2-(p-tolyl)cyclopropyl)(2,4,6-trihydroxyphenyl)methanone], the MIC in test [1] (setting [4]) was 13 µg/mL (≈ 45.7 µM); in test [2] (setting [5]), 20 µg/mL (≈ 70.3 µM); in test [3] (setting [6]), more than 40 µg/mL.

As for `Cc1ccc(C2CC2C(=O)c2c(O)cc(O)cc2O)c(C)c1` (centres unmarked) [Example 20, (2-(2,4-dimethylphenyl)cyclopropyl)(2,4,6-trihydroxyphenyl)methanone], the MIC amounted to 1.7 µg/mL (≈ 5.7 µM) in test [1] (setting [4]), 2.1 µg/mL (≈ 7.04 µM) in test [2] (setting [5]) and 2.4 µg/mL (≈ 8.04 µM) in test [3] (setting [6]).

On to `CCOc1ccc(C2CC2C(=O)c2c(O)cc(O)cc2O)cc1` (centres unmarked) [Example 21, (2-(4-ethoxyphenyl)cyclopropyl)(2,4,6-trihydroxyphenyl)methanone], for which the figures for the MIC in test [1] (setting [4]), in test [2] (setting [5]) and in test [3] (setting [6]) were 20 µg/mL (≈ 63.6 µM), 16 µg/mL (≈ 50.9 µM) and more than 40 µg/mL, respectively.

Turning to `O=C(c1c(O)cc(O)cc1O)C1CC1c1ccc(Oc2ccccc2)cc1` (centres unmarked) [Example 22, (2-(4-phenoxyphenyl)cyclopropyl)(2,4,6-trihydroxyphenyl) methanone], the MIC was 0.49 µg/mL (≈ 1.35 µM) in test [1] (setting [4]), 1 µg/mL (≈ 2.76 µM) in test [2] (setting [5]) and 1.3 µg/mL (≈ 3.59 µM) in test [3] (setting [6]).

In the case of `O=C(CCc1ccc(Oc2ccc(Cl)cc2)cc1C(F)(F)F)c1c(O)cc(O)cc1O` [Example 23, 3-(4-(4-chlorophenoxy)-2-(trifluoromethyl)phenyl)-1-(2,4,6-trihydroxyphenyl)propan-1-one], the results for the MIC in test [1] (setting [4]), in test [2] (setting [5]) and in test [3] (setting [6]) were 1.7 µg/mL (≈ 3.75 µM), 1.1 µg/mL (≈ 2.43 µM) and 1.7 µg/mL (≈ 3.75 µM), respectively.

Regarding `Cc1cc(Oc2ccc(Cl)cc2)ccc1CCC(=O)c1c(O)cc(O)cc1O` [Example 24, 3-(4-(4-chlorophenoxy)-2-methylphenyl)-1-(2,4,6-trihydroxyphenyl)propan-1-one], the MIC was found to be 1.1 µg/mL (≈ 2.76 µM) in test [1] (setting [4]), 1.8 µg/mL (≈ 4.51 µM) in test [2] (setting [5]) and 3 µg/mL (≈ 7.52 µM) in test [3] (setting [6]).

As to `O=C(c1c(O)cc(O)cc1O)C1CC1c1ccc(Oc2ccc(Cl)cc2)cc1C(F)(F)F` (centres unmarked) [Example 25, (2-(4-(4-chlorophenoxy)-2-(trifluoromethyl)phenyl)cyclopropyl)(2,4,6-trihydroxyphenyl)methanone], the MIC was 1.5 µg/mL (≈ 3.23 µM) in test [1] (setting [4]), 1.7 µg/mL (≈ 3.66 µM) in test [2] (setting [5]) and 1.7 µg/mL (≈ 3.66 µM) in test [3] (setting [6]).

With `Cc1cc(Oc2ccc(Cl)cc2)ccc1C1CC1C(=O)c1c(O)cc(O)cc1O` (centres unmarked) [Example 26, (2-(4-(4-chlorophenoxy)-2-methylphenyl)cyclopropyl)(2,4,6-trihydroxyphenyl)methanone], the MIC in test [1] (setting [4]) was 1.4 µg/mL (≈ 3.41 µM); in test [2] (setting [5]), 1.4 µg/mL (≈ 3.41 µM); in test [3] (setting [6]), 2.1 µg/mL (≈ 5.11 µM).

Turning to `Cc1cc(Oc2ccc(F)cc2)ccc1/C=C/C(=O)c1c(O)cc(O)cc1O` [Example 27, (E)-3-(4-(4-fluorophenoxy)-2-methylphenyl)-1-(2,4,6-trihydroxyphenyl)prop-2-en-1-one], the values for the MIC in test [1] (setting [4]), in test [2] (setting [5]) and in test [3] (setting [6]) were 2.4 µg/mL (≈ 6.31 µM), 5.1 µg/mL (≈ 13.4 µM) and 17 µg/mL (≈ 44.7 µM), respectively.

For the compound `O=C(/C=C/c1ccc(Oc2ccc(C(F)(F)F)cc2)cc1)c1c(O)cc(O)cc1O` [Example 28, (E)-3-(4-(4-(trifluoromethyl)phenoxy)phenyl)-1-(2,4,6-trihydroxyphenyl)prop-2-en-1-one], the figures for the MIC in test [1] (setting [4]), in test [2] (setting [5]) and in test [3] (setting [6]) were 2.4 µg/mL (≈ 5.76 µM), 3.1 µg/mL (≈ 7.45 µM) and 6.5 µg/mL (≈ 15.6 µM), respectively.

Take `CCCc1c(O)cc(O)c(C(=O)/C=C/c2ccc(Oc3ccc(F)cc3)cc2)c1O` [Example 67, (E)-3-(4-(4-fluorophenoxy)phenyl)-1-(2,4,6-trihydroxy-3-propylphenyl)prop-2-en-1-one]: the MIC in test [1] (setting [4]) came out at 0.72 µg/mL (≈ 1.76 µM); in test [3] (setting [6]), 0.55 µg/mL (≈ 1.35 µM).

These data come from US10450292B2, “Inhibitors of bacterial RNA polymerase: arylpropanoyl, arylpropenoyl, and arylcyclopropanecarboxyl phloroglucinols” (Rutgers, The State University of New Jersey, priority 2015, dated 2019).
